Publication PMC8111572 (Inorganic chemistry, 2020)
Read-outs that look alike come from different tables or passages of the source. Marks after values point to notes of the source that are not given here.

Tests used:
[1] = protonation constant, cited from earlier work
[2] = cited from earlier work
[3] = Ligand protonation constants by potentiometric titration; format: physicochemical; settings: protonation constant, 25.0 °C, 0.1 M KCl
pLa value = format: binding; settings: −log [M]free when [M]total = 10^−6 M and [L]total = 10^−5 M at pH = 7.4; calculated (Table S1)
pLu value = format: binding; settings: −log [M]free when [M]total = 10^−6 M and [L]total = 10^−5 M at pH = 7.4; calculated (Table S1)
[4] = −log [M]free when [M]total = 10^−6 M and [L]total = 10^−5 M at pH = 7.4; cited from earlier work
[5] = −log [M]free when [M]total = 10^−6 M and [L]total = 10^−5 M at pH = 7.4; cited from earlier work; remark: listed apart in the source
[6] = cited from earlier work; remark: listed apart in the source

O=C(O)CN(CCOCCN(CC(=O)O)CC(=O)O)CC(=O)O [OBETA]
log K1 ([1]; 0.1 M KCl): 9.34^e | log K2 ([1]; 0.1 M KCl): 8.62^e | log K3 ([1]; 0.1 M KCl): 3.19^e | log K4 ([1]; 0.1 M KCl): 2.19^e | log K5 ([1]; 0.1 M KCl): 1.77^e

O=C([O-])CN1CCN(CC(=O)[O-])CCN(CC(=O)[O-])CCN(CC(=O)[O-])CC1.[Gd+3] [Gd-DOTA]
kex298 (water exchange rate constant) [2]: 4.1e+06 s⁻¹

CN(CCOCCN(C)Cc1cccc(C(=O)O)n1)Cc1cccc(C(=O)O)n1 [OxyMepa, 6,6’-(((oxybis(ethane-2,1-diyl))bis(methylazanediyl))bis(methylene))dipicolinic acid]
log K1 [3]: 8.72(1) | log K2 [3]: 7.81(2) | log K3 [3]: 3.09(2) | log K4 [3]: 2.35(4)

O=C(O)CN(CCOCCN(CC(=O)O)Cc1cccc(C(=O)O)n1)Cc1cccc(C(=O)O)n1 [Oxyaapa, 6,6’-(((oxybis(ethane-2,1-diyl))bis((carboxymethyl)azanediyl))bis(methylene))dipicolinic acid]
log K1 [3]: 8.47(4) | log K2 [3]: 7.63(2) | log K3 [3]: 3.66(4) | log K4 [3]: 2.90(1) | log K5 [3]: 1.77(12) | pLa (pLa value): 18.5 | pLu (pLu value): 21.1

O=C(O)CN(Cc1cccc(CN(CC(=O)O)Cc2cccc(C(=O)O)n2)n1)Cc1cccc(C(=O)O)n1 [Pypa]
pLa [4]: 19.9 | pLu [5]: 22.6

O=C(O)c1ccccn1 [pyridinium-2-carboxylic acid]
pKa [6]: 5.39

O=C([O-])CN(CCN(CC(=O)[O-])CC(=O)O)CCN(CC(=O)[O-])CC(=O)O.[Gd+3] [Gd-DTPA]
kex298 (water exchange rate constant) [2]: 3.3e+06 s⁻¹

Cc1cccc(C)n1 [2,6-dimethylpyridinium cation]
pKa [6]: 6.7

O=C(O)CN(CCN(CC(=O)O)Cc1cccc(C(=O)O)n1)Cc1cccc(C(=O)O)n1 [Octapa]
log K1 ([1]; 0.15 M NaCl): 8.52 | log K2 ([1]; 0.15 M NaCl): 5.40 | log K3 ([1]; 0.15 M NaCl): 3.65 | log K4 ([1]; 0.15 M NaCl): 2.97 | log K5 ([1]; 0.15 M NaCl): 1.66 | log K1 ([1]; 0.16 M NaCl): 8.58 | log K2 ([1]; 0.16 M NaCl): 5.43 | log K3 ([1]; 0.16 M NaCl): 3.75 | log K4 ([1]; 0.16 M NaCl): 3.08 | log K5 ([1]; 0.16 M NaCl): 2.21 | pLa [4]: 19.7 | pLu [5]: 19.8
